Measurements as given in patent publication US20030148966A1, “Method and composition for inducing apoptosis in cells” (priority 2002, published 2003).
“And” between values parts separate entries of the source, which are not always exact repeats. Equal values may be shown once. Read-outs that look alike come from different tables or passages of the source.

Experiments:
HL-60 cells [1] = conditions: 48 hours
HL-60 cells [2] = test: Deoxyribonucleotide (dNTP) extraction and DNA-polymerase assay; type: cell-based, human; conditions: 16 hours; for % dATP / % dCTP: percent of control
Protocol: The TCA extract was dried using a Speedvac drying system at room temperature and, if necessary, stored at −20° C. until analysis. The assay for dNTP, which is based on the original DNA-polymerase assay^22, was optimized by the use of 96-well plates^23 and tailor-made oligonucleotides^24,25, and was performed as previously described for dCTP^21. After reconstitution of the samples in Hepes-buffered assay buffer (pH 7.3) at 10^7 cells/ml, samples and standards (0, 1, 2.5 and 5 pmol dNTP) were added to diethylaminoethyl (DEAE) filter plates (Millipore, Ettenleur, The Netherlands). This was followed by the addition of demi water (up to 30 μl if a reaction mix, consisting of 10 μl [8-^3H]dATP (25 μM; 1.6 Ci/mmol; 0.04 μCi/μl) for detection of dCTP, dTTP and dGTP and 10 μl[CH3-^3H]dTTP (25 μM; 1.6 Ci/mmol; 0.04 μCi/μl) for dATP detection, 5 μl appropriate oligonucleotide (6 μM. consisting of a primer attached to one of four possible templates specially designed for the detection of one of the four dNTPs), 5 μl Klenow DNA pol I and […] assay buffer. The filterplates were gently vortexed and incubated at room temperature for 2 hours. The wells were washed, the wet filters punched out and radioactivity counted as described^21. The dNTP levels were determined after 16-hours of treatment. At this time point, cells were still alive and membranes intact, preventing non-specific loss of dNTP's^33. […] Whereas, dCTP (89% of control)- and dATP (81% of control)-levels were in the range of control when cells were treated with 5 μM BR, exposure to 20 μM BR, caused a drop in dCTP and dATP levels to 37% and 33%, respectively.

in vitro = conditions: human
HL-60 cells [3] = test: ATP bioluminescence assay (intracellular ATP content); type: cell-based, human; conditions: 16 hours, percent of untreated control
Protocol: ATP content was measured with the ATP bioluminescence assay kit HS II from Boehringer Mannheim (Roche Molecular Biochemicals, Mannheim, Germany). Cells were treated with adenosine and BR for 16 hours, and subsequently their viability was measured by trypan blue exclusion. […] An equal amount of cell lysis reagent was then added, and after an incubation period of 5 minutes at room temperature, the samples were transferred to microtiter plates. A Luciferase reagent (100 μl) was added and the signal was detected immediately on a lumi Imager F1 (Roche). Experiments were done in triplicates, and the values of treated samples calculated as percent of untreated controls. […] Cells were harvested and the intercellular ATP content was measured as described in herein. Statistical analysis by t-test confirmed that the differences between ATP-levels after treatment with BR (+/−adenosine) were significant (p<0.05).

HL-60 cells [4] = test: Comet assay (single cell gel electrophoresis), DNA strand breaks; type: cell-based, human; conditions: for DNA tail length: % of cells <= 25 μm: 16 hours, alkaline pH 13.0; for DNA single strand breaks: alkaline pH (13.0)
HL-60 cells [5] = test: Western blots: PARP, gelsolin and Caspase 3 cleavage; type: cell-based, human
Protocol: Cells from treated and untreated cultures were sedimented, washed in cold PBS, and lysed in SDS sample buffer (25 mM TRIS pH 6.8, 3% SDS, 10% glycerol, 36 mM DTT, 0.925 mM EDTA). Equal amounts of protein (calculated with the Dot Metric Protein Assay Kit from Novus Molecular, San Diego, Calif., USA) were loaded onto 10% or 15% polyacrylamide gels. Proteins were electrophoresed at 80 V for 2 to 3 hours, and then transblotted onto PVDF membranes (Hybond P, Amersham International, UK) at 80 V for 2 hours^20. Membranes were quenched in PBS with 0.5% skim milk and 0.05% Tween 20 for 1 hour, incubated with primary antibodies (mouse monoclonal anti PARP C-2-10 used 1:2000, mouse monoclonal anti-gelsolin used 1:2000, Sigma; rabbit polyclonal anti caspase 3 antibody used 1:1000, St. Cruz) overnight at 4° C., and with horseradish peroxidase, conjugated secondary antibody for 2 hours at room temperature. The ECL kit (Amersham International, UK) was used for blot development; chemiluminescence was detected on Kodak Xomat UV films.
Controls were treated with saline for 24 hours and western blots were performed as described herein. The 89 kD cleavage product of PARP and the 41 kD cleavage product of gelsolin could be detected upon treatment with 5 μM and 10 μM BR, and diminished in response to higher doses of BR.
5 μM and 10 μM BR, which mainly induce apoptosis, triggering processing of caspase 3.20 μM and 40 μM BR mainly provokes necrosis. This is also reflected by the reduced levels of activated caspase 3. In the presence of adenosine, 20 μM and 40 μM BR activate caspase 3 and also induce apoptosis. Equal sample loading was controlled by Ponceau S staining.

leukemia cells = test: Oncolytic activity against leukemia cells; type: cell-based
HL-60 cells [6] = test: Transmission electron microscopy of cell morphology; type: cell-based, human; conditions: 48 hours
Protocol: For transmission electron microscopy (TEM) cells treated with PBS (controls), […] glutaraldehyde (in 0.1 M sodium cacodylate buffer with 4% sucrose, pH 7.2) for 45 minutes, washed in sodium cacodylate buffer and post-fixed in 2% osmium tetroxide (in 0.1 M sodium cacodylate buffer with 4% sucrose) for 45 minutes. Following several washes, the cells were concentrated by centrifugation at 150 g for 5 minutes, dehydrated in a graded series of ethanol, washed in propylene oxide, embedded in Epon (Serva, Germany), and sectioned at about 70 nm. The ultra-thin sections were stained with uranyl acetate/lead citrate for observation with a Zeiss EM 902 transmission electron microscope.
The bars at the lower right corners indicated 1.1 μm.

Q: Which results are given for `CC1=C(/C=C/C(C)=C/C=C/C(C)=C/C(=O)O)C(C)(C)CCC1` [ATRA, all-trans retinoic acid, reference compound]?
A: % apoptotic cells (HL-60 cells [1]; 120 μM ATRA): 30%; % necrotic cells (HL-60 cells [1]; 120 μM ATRA): 45%

Q: What does the source list for `Nc1ncnc2c1ncn2[C@@H]1O[C@H](CO)[C@@H](O)[C@H]1O` [Ade, adenosine, reference compound]?
A: % dATP (HL-60 cells [2]; adenosine alone): 70%; % dCTP (HL-60 cells [2]; adenosine alone): 64%; % apopt (HL-60 cells [1]; adenosine alone): 7%; % necro (HL-60 cells [1]; adenosine alone): 0%; % total death (HL-60 cells [1]; adenosine alone): 7%; % viable + apopt (HL-60 cells [1]; adenosine alone): 100%; viability at 48 h, 800 µM (in vitro): 93%; % ATP (HL-60 cells [3]; adenosine alone (800 μM)): 85%; DNA tail length: % of cells <= 25 μm (HL-60 cells [4]; adenosine alone): 98% <= 25 μm

Q: Which results are given for `NC(=O)c1cccc([C@@H]2O[C@H](CO)[C@@H](O)[C@H]2O)c1` [BR, benzamide riboside]?
A: cell death and gelsolin cleavage (HL-60 cells [5]; 0.5 μM, 1 μM or 2 μM BR, 24 hours): neither induced cell death, nor gelosin cleavage; Caspase 3 activation (p20 kD fragment) (HL-60 cells [5]; 5 μM and 10 μM BR, 24 hours): Caspase 3 activation culminated; cell death mode; gelsolin (41 kD) and PARP (89 kD) fragmentation (HL-60 cells [5]; 5 μM or 10 μM BR, 24 hours): caused apoptosis; cell death mode; PARP and gelsolin fragmentation (HL-60 cells [5]; 20 μM BR, 24 hours): increase of the fraction of necrotic cells; Caspase 3 activation (p20 kD fragment) (HL-60 cells [5]; 20 μM or 40 μM BR +/- 800 μM adenosine): activation was inhibited; % dATP (HL-60 cells [2]; 5 μM BR +/- adenosine): 81%; % dCTP (HL-60 cells [2]; 5 μM BR +/- adenosine): 89%; dGTP levels, % of control (HL-60 cells [2]; 5 μM or 20 μM BR): approximately 53%; % dATP (HL-60 cells [2]; 20 μM BR +/- adenosine): 33%; % dCTP (HL-60 cells [2]; 20 μM BR +/- adenosine): 37%; % apopt (HL-60 cells [1]; 5 μM BR +/- adenosine): 69%; % necro (HL-60 cells [1]; 5 μM BR +/- adenosine): 2%; % total death (HL-60 cells [1]; 5 μM BR +/- adenosine): 71%; % viable + apopt (HL-60 cells [1]; 5 μM BR +/- adenosine): 98%; % apopt (HL-60 cells [1]; 20 μM BR +/- adenosine): 30%; % necro (HL-60 cells [1]; 20 μM BR +/- adenosine): 51%; % total death (HL-60 cells [1]; 20 μM BR +/- adenosine): 81%; % viable + apopt (HL-60 cells [1]; 20 μM BR +/- adenosine): 49%; concentration range of strong oncolytic activity (leukemia cells): 5 to 10 µM; cell morphology by electron microscopy (HL-60 cells [6]; 5 μM BR): electron dense chromatin marginated at the nuclear envelope as a hallmark of apoptosis; cell morphology by electron microscopy (HL-60 cells [6]; 20 μM BR): typical necrotic morphology; % ATP (HL-60 cells [3]; 5 μM BR +/- adenosine (800 μM)): 50%; % ATP (HL-60 cells [3]; 20 μM BR +/- adenosine (800 μM)): 3% and 2.7%; DNA single strand breaks (HL-60 cells [4]; 5 μM BR): but not with 5 μM BR treatment; DNA tail length: % of cells <= 25 μm (HL-60 cells [4]; 20 μM BR +/- adenosine): 50% <= 25 μm; DNA double strand breaks (HL-60 cells [4]; 20 μM BR, 8 hours, neutral pH (7.5)): induced DNA double strand breaks; DNA single strand breaks (HL-60 cells [4]; 20 μM BR): DNA single strand breaks occurred
